Laboratory results from article PMC10778198, “First-in-Human Dose-Escalation Study of the Novel Oral Depsipeptide Class I-Targeting HDAC Inhibitor Bocodepsin (OKI-179) in Patients with Advanced Solid Tumors” (Cancers, 2023).

Tested on: patients with advanced solid tumors
Assay: phase I dose escalation: safety, DLT, MTD, RP2D (CTCAE v. 5)
Format: in vivo
Settings: 4:3
From the text: Subsequent dosing cohorts were enrolled using a standard 3 + 3 design.
If any patient in any cohort of three patients developed a DLT during cycle 1, an additional three patients were recruited to expand the cohort to up to six evaluable patients. If two or more patients in any expanded cohort developed a DLT, this dose was considered non-tolerated, and dose escalation was discontinued. The MTD was defined as the highest dose level for which no more than one of six patients experienced a DLT.
Patients were continuously evaluated for adverse events throughout the study using the Common Terminology Criteria of Adverse Events (CTCAE v. 5). The patients underwent a clinical history and physical examination, an ECOG PS, a complete blood count (CBCs), chemistry, coagulation studies, urinalysis, a serum pregnancy test (as applicable), a triplicate ECG, an ophthalmology examination, and baseline tumor assessment at screening. During cycle 1, weekly history and physical examination, CBC, chemistry, coagulation parameters, urinalysis, and triplicate ECGs were performed; in subsequent cycles, weekly labs were limited to a CBC. Repeat ophthalmology examinations were performed at cycle 3, day 1, and at the end of treatment. Repeat tumor assessment was performed every 2 cycles (6 weeks) in accordance with RECIST 1.1.

## CC(C)[C@H](N)C(=O)SCC/C=C/[C@@H]1CC(=O)NCc2nc(cs2)C(=O)NC(C)(C)C(=O)N[C@@H](C(C)C)C(=O)O1 [OKI-179, Bocodepsin]
30 mg–210 mg (n = 8), G1
  TEAE: Anemia: 0 n (%)
  TEAE: Back pain: 1 (13) n (%)
  TEAE: Cough: 2 (25) n (%)
  TEAE: Decreased appetite: 3 (38) n (%)
  TEAE: Diarrhea: 5 (63) n (%)
  TEAE: Dyspnea: 2 (25) n (%)
  TEAE: ECG QT prolonged: 0 n (%)
  TEAE: Fatigue: 2 (25) n (%)
  TEAE: Headache: 2 (25) n (%)
  TEAE: Hypokalaemia: 1 (13) n (%)
  TEAE: Muscular weakness: 0 n (%)
  TEAE: Nasal congestion: 1 (13) n (%)
  TEAE: Nausea: 5 (63) n (%)
  TEAE: Platelet count decreased: 0 n (%)
  TEAE: Proteinuria: 0 n (%)
  TEAE: Pyrexia: 2 (25) n (%)
  TEAE: Vomiting: 4 (50) n (%)
  TEAE: Weight decreased: 1 (13) n (%)
30 mg–210 mg (n = 8), G2
  TEAE: Anemia: 2 (25) n (%)
  TEAE: Back pain: 0 n (%)
  TEAE: Cough: 1 (13) n (%)
  TEAE: Decreased appetite: 1 (13) n (%)
  TEAE: Diarrhea: 0 n (%)
  TEAE: Dyspnea: 0 n (%)
  TEAE: ECG QT prolonged: 0 n (%)
  TEAE: Fatigue: 1 (13) n (%)
  TEAE: Headache: 0 n (%)
  TEAE: Hypokalaemia: 0 n (%)
  TEAE: Muscular weakness: 1 (13) n (%)
  TEAE: Nausea: 0 n (%)
  TEAE: Platelet count decreased: 0 n (%)
  TEAE: Proteinuria: 0 n (%)
  TEAE: Pyrexia: 0 n (%)
  TEAE: Vomiting: 0 n (%)
  TEAE: Weight decreased: 1 (13) n (%)
30 mg–210 mg (n = 8), G3
  TEAE: Anemia: 2 (25) n (%)
  TEAE: Back pain: 0 n (%)
  TEAE: Cough: 0 n (%)
  TEAE: Decreased appetite: 0 n (%)
  TEAE: Diarrhea: 0 n (%)
  TEAE: Dyspnea: 0 n (%)
  TEAE: ECG QT prolonged: 1 (13) n (%)
  TEAE: Fatigue: 1 (13) n (%)
  TEAE: Headache: 0 n (%)
  TEAE: Hypokalaemia: 0 n (%)
  TEAE: Muscular weakness: 0 n (%)
  TEAE: Nausea: 0 n (%)
  TEAE: Platelet count decreased: 0 n (%)
  TEAE: Proteinuria: 0 n (%)
  TEAE: Pyrexia: 0 n (%)
  TEAE: Vomiting: 0 n (%)
  TEAE: Weight decreased: 0 n (%)
270 mg (n = 3), G1
  TEAE: Anemia: 0 n (%)
  TEAE: Back pain: 0 n (%)
  TEAE: Cough: 0 n (%)
  TEAE: Decreased appetite: 0 n (%)
  TEAE: Diarrhea: 0 n (%)
  TEAE: Dyspnea: 0 n (%)
  TEAE: ECG QT prolonged: 0 n (%)
  TEAE: Fatigue: 1 (33) n (%)
  TEAE: Headache: 0 n (%)
  TEAE: Hypokalaemia: 0 n (%)
  TEAE: Muscular weakness: 1 (33) n (%)
  TEAE: Nausea: 1 (33) n (%)
  TEAE: Platelet count decreased: 1 (33) n (%)
  TEAE: Proteinuria: 0 n (%)
  TEAE: Pyrexia: 0 n (%)
  TEAE: Vomiting: 0 n (%)
  TEAE: Weight decreased: 0 n (%)
270 mg (n = 3), G2
  TEAE: Anemia: 0 n (%)
  TEAE: Back pain: 0 n (%)
  TEAE: Cough: 0 n (%)
  TEAE: Decreased appetite: 0 n (%)
  TEAE: Diarrhea: 0 n (%)
  TEAE: Dyspnea: 0 n (%)
  TEAE: ECG QT prolonged: 0 n (%)
  TEAE: Fatigue: 1 (33) n (%)
  TEAE: Headache: 0 n (%)
  TEAE: Hypokalaemia: 0 n (%)
  TEAE: Muscular weakness: 0 n (%)
  TEAE: Nasal congestion: 0 n (%)
  TEAE: Nausea: 0 n (%)
  TEAE: Platelet count decreased: 0 n (%)
  TEAE: Proteinuria: 0 n (%)
  TEAE: Pyrexia: 0 n (%)
  TEAE: Vomiting: 0 n (%)
  TEAE: Weight decreased: 0 n (%)
270 mg (n = 3), G3
  TEAE: Anemia: 1 (33) n (%)
  TEAE: Back pain: 0 n (%)
  TEAE: Cough: 0 n (%)
  TEAE: Decreased appetite: 0 n (%)
  TEAE: Diarrhea: 0 n (%)
  TEAE: Dyspnea: 0 n (%)
  TEAE: ECG QT prolonged: 0 n (%)
  TEAE: Fatigue: 0 n (%)
  TEAE: Headache: 0 n (%)
  TEAE: Hypokalaemia: 0 n (%)
  TEAE: Muscular weakness: 0 n (%)
  TEAE: Nasal congestion: 0 n (%)
  TEAE: Nausea: 0 n (%)
  TEAE: Platelet count decreased: 0 n (%)
  TEAE: Proteinuria: 0 n (%)
  TEAE: Pyrexia: 1 (33) n (%)
  TEAE: Vomiting: 0 n (%)
  TEAE: Weight decreased: 0 n (%)
350 mg (n = 3), G1
  TEAE: Anemia: 1 (33) n (%)
  TEAE: Back pain: 0 n (%)
  TEAE: Cough: 0 n (%)
  TEAE: Decreased appetite: 0 n (%)
  TEAE: Diarrhea: 0 n (%)
  TEAE: Dyspnea: 1 (33) n (%)
  TEAE: ECG QT prolonged: 0 n (%)
  TEAE: Fatigue: 0 n (%)
  TEAE: Headache: 0 n (%)
  TEAE: Hypokalaemia: 0 n (%)
  TEAE: Muscular weakness: 0 n (%)
  TEAE: Nausea: 1 (33) n (%)
  TEAE: Platelet count decreased: 2 (67) n (%)
  TEAE: Proteinuria: 0 n (%)
  TEAE: Pyrexia: 0 n (%)
  TEAE: Vomiting: 0 n (%)
  TEAE: Weight decreased: 0 n (%)
350 mg (n = 3), G2
  TEAE: Anemia: 0 n (%)
  TEAE: Back pain: 0 n (%)
  TEAE: Cough: 0 n (%)
  TEAE: Decreased appetite: 1 (33) n (%)
  TEAE: Diarrhea: 0 n (%)
  TEAE: Dyspnea: 0 n (%)
  TEAE: ECG QT prolonged: 0 n (%)
  TEAE: Fatigue: 0 n (%)
  TEAE: Headache: 0 n (%)
  TEAE: Hypokalaemia: 1 (33) n (%)
  TEAE: Muscular weakness: 1 (33) n (%)
  TEAE: Nasal congestion: 0 n (%)
  TEAE: Nausea: 1 (33) n (%)
  TEAE: Platelet count decreased: 0 n (%)
  TEAE: Proteinuria: 0 n (%)
  TEAE: Pyrexia: 0 n (%)
  TEAE: Vomiting: 1 (33) n (%)
  TEAE: Weight decreased: 0 n (%)
350 mg (n = 3), G3
  TEAE: Anemia: 0 n (%)
  TEAE: Back pain: 1 (33) n (%)
  TEAE: Cough: 0 n (%)
  TEAE: Decreased appetite: 0 n (%)
  TEAE: Diarrhea: 0 n (%)
  TEAE: Dyspnea: 0 n (%)
  TEAE: ECG QT prolonged: 1 (33) n (%)
  TEAE: Fatigue: 1 (33) n (%)
  TEAE: Headache: 0 n (%)
